In patent publication US11267800B2, “Cyclohexyl acid triazole azines as LPA antagonists” (BRISTOL-MYERS SQUIBB COMPANY, priority 2017, dated 2022):
pIC50: −log10 of the molar value.

The compounds below were run against T1, human LPA1 (Homo sapiens, UniProt Q92633) (assay: LPA1 functional antagonist assay (calcium flux)). Conditions: CHO cells overexpressing human LPA1; inhibition of calcium flux induced by 10 nM LPA; read-out: hLPA1 IC50.
T1 construct: expressed in transfected cells; host or cells: Chinese hamster ovary (CHO) cells
Assay type: cell-based
Experimental: The effectiveness of compounds of the present invention as LPA1 inhibitors can be determined in an LPA1 functional antagonist assay as follows:
Chinese hamster ovary cells overexpressing human LPA1 were plated overnight (15,000 cells/well) in poly-D-lysine coated 384-well microplates (Greiner bio-one, Cat #781946) in DMEM/F12 medium (Gibco, Cat #11039). Following overnight culture, cells were loaded with calcium indicator dye (AAT Bioquest Inc, Cat #34601) for 30 minutes at 37° C. The cells were then equilibrated to room temperature for 30 minutes before the assay. Test compounds solubilized in DMSO were transferred to 384 well non-binding surface plates (Corning, Cat #3575) using the Labcyte Echo acoustic dispense and diluted with assay buffer [1×HBSS with calcium/magnesium (Gibco Cat #14025-092), 20 mM HEPES (Gibco Cat #15630-080) and 0.1% fatty acid free BSA (Sigma Cat #A9205)] to a final concentration of 0.5% DMSO. Diluted compounds were added to the cells by FDSS6000 (Hamamatsu) at final concentrations ranging from 0.08 nM to 5 μM. and were then incubated for 20 min at room temperature at which time LPA (Avanti Polar Lipids Cat #857130C) was added at final concentrations of 10 nM to stimulate the cells. The compound IC50 value was defined as the concentration of test compound which inhibited 50% of the calcium flux induced by LPA alone. IC50 values were determined by fitting data to a 4-parameter logistic equation (GraphPad Prism, San Diego Calif.).

T1 sequence (Q92633 whole entry): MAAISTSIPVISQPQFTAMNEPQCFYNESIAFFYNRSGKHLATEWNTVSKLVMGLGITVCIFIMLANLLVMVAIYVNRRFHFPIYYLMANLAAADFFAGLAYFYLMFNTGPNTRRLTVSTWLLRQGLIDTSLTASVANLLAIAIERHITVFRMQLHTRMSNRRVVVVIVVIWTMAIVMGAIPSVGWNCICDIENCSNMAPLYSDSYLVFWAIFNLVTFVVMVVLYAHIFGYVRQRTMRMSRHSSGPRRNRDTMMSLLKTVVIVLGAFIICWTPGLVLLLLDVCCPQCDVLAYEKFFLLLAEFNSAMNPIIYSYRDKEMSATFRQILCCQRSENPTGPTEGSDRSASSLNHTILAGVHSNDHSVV

Point of comparison: `Cc1nc(-c2nnn(C)c2CNc2ncc(F)c(NC3CCC3)n2)ccc1O[C@H]1CCC[C@H](C(=O)O)C1` [Example 53], pIC50 7.24. Against it:
- Cc1nc(-c2nnn(C)c2CNc2ncnc(NCCC3CC3)n2)ccc1O[C@H]1CCC[C@H](C(=O)O)C1 [Example 48] — 0.58 log units lower, 6.66
- CCCCNc1nc(NCc2c(-c3ccc(O[C@H]4CCC[C@H](C(=O)O)C4)c(C)n3)nnn2C)ncc1F [Example 49] — within 0.2 log units, 7.16
- Cc1nc(-c2nnn(C)c2CNc2nccc(NCCC3CC3)n2)ccc1O[C@H]1CCC[C@H](C(=O)O)C1 [Example 50] — 0.63 log units lower, 6.61
- CCCNc1ccnc(NCc2c(-c3ccc(O[C@H]4CCC[C@H](C(=O)O)C4)c(C)n3)nnn2C)n1 [Example 51] — 0.61 log units lower, 6.63
- Cc1nc(-c2nnn(C)c2CNc2ncc(F)c(NCCC(C)C)n2)ccc1O[C@H]1CCC[C@H](C(=O)O)C1 [Example 52] — within 0.2 log units, 7.20
- Cc1nc(-c2nnn(C)c2CNc2ncc(F)c(Nc3ccccc3)n2)ccc1O[C@H]1CCC[C@H](C(=O)O)C1 [Example 54] — 0.37 log units lower, 6.87
- Cc1nc(-c2nnn(C)c2CNc2ccnc(OCC(C)(C)F)n2)ccc1O[C@H]1CCC[C@H](C(=O)O)C1 [Example 55] — 0.52 log units lower, 6.72
- Cc1nc(-c2nnn(C)c2CNc2nccc(OCC(C)(C)F)n2)ccc1O[C@H]1CCC[C@H](C(=O)O)C1 [Example 56] — within 0.2 log units, 7.28
- Cc1nc(-c2nnn(C)c2CNc2ncc(F)c(NCCC3CC3)n2)ccc1O[C@H]1CCC[C@H](C(=O)O)C1 [Example 57] — 0.44 log units higher, 7.68
- CCNc1nc(NCc2c(-c3ccc(O[C@H]4CCC[C@H](C(=O)O)C4)c(C)n3)nnn2C)ncc1F [Example 58] — within 0.2 log units, 7.09
- Cc1nc(-c2nnn(C)c2CNc2ncc(F)c(NC(C)C)n2)ccc1O[C@H]1CCC[C@H](C(=O)O)C1 [Example 59] — within 0.2 log units, 7.23
- Cc1nc(-c2nnn(C)c2CNc2ncc(F)c(NCC(C)C)n2)ccc1O[C@H]1CCC[C@H](C(=O)O)C1 [Example 60] — 0.23 log units higher, 7.47
- Cc1nc(-c2nnn(C)c2CNc2ccnc(OCC(C)(C)C)n2)ccc1O[C@H]1CCC[C@H](C(=O)O)C1 [Example 61] — 0.61 log units lower, 6.63
- Cc1nc(-c2nnn(C)c2CNc2nccc(NCCc3ccc(F)cc3)n2)ccc1O[C@H]1CCC[C@H](C(=O)O)C1 [Example 62] — within 0.2 log units, 7.20
- Cc1nc(-c2nnn(C)c2CNc2nccc(NCCc3ccccc3)n2)ccc1O[C@H]1CCC[C@H](C(=O)O)C1 [Example 63] — within 0.2 log units, 7.07
- CCCNc1nc(NCc2c(-c3ccc(O[C@H]4CCC[C@H](C(=O)O)C4)c(C)n3)nnn2C)ncc1F [Example 64] — within 0.2 log units, 7.34
- Cc1nc(-c2nnn(C)c2CNc2nccc(OCC(C)(C)C)n2)ccc1O[C@H]1CCC[C@H](C(=O)O)C1 [Example 65] — 0.20 log units higher, 7.44
- Cc1nc(-c2nnn(C)c2CNc2nccc(C3CCCC3)n2)ccc1O[C@H]1CCC[C@H](C(=O)O)C1 [Example 66] — 0.68 log units higher, 7.92
- [2H]C([2H])([2H])C([2H])(Oc1ccnc(NCc2c(-c3ccc(O[C@H]4CCC[C@H](C(=O)O)C4)c(C)n3)nnn2C)n1)C([2H])([2H])[2H] [Example 67] — within 0.2 log units, 7.39
- CCOc1ccnc(NCc2c(-c3ccc(O[C@H]4CCC[C@H](C(=O)O)C4)c(C)n3)nnn2C)c1 [Example 68] — 0.36 log units lower, 6.88
- Cc1nc(-c2nnn(C)c2CNc2nccc(OCC(C)F)n2)ccc1O[C@H]1CCC[C@H](C(=O)O)C1 (stereo partly drawn) [Example 69] — within 0.2 log units, 7.27
- Cc1nc(-c2nnn(C)c2CNc2ncnc(N3CCCC3)n2)ccc1O[C@H]1CCC[C@H](C(=O)O)C1 [Example 70] — 0.74 log units lower, 6.50
- [2H]C([2H])([2H])C([2H])([2H])Oc1ccnc(NCc2c(-c3ccc(O[C@H]4CCC[C@H](C(=O)O)C4)c(C)n3)nnn2C)n1 [Example 71] — 0.65 log units higher, 7.89
- Cc1nc(-c2nnn(C)c2CNc2cc(OC(F)(F)F)ccn2)ccc1O[C@H]1CCC[C@H](C(=O)O)C1 [Example 72] — the same, 7.24
- Cc1nc(-c2nnn(C)c2CNc2ccnc(OCC(F)F)n2)ccc1O[C@H]1CCC[C@H](C(=O)O)C1 [Example 73] — 0.36 log units lower, 6.88
- Cc1nc(-c2nnn(C)c2CNc2nccc(OCC3(C)COC3)n2)ccc1O[C@H]1CCC[C@H](C(=O)O)C1 [Example 74] — 0.35 log units lower, 6.89
